Source: US11168080B2, “Dynamin-1-like protein inhibitors” (Mitobridge, Inc., priority 2017, dated 2021)
pIC50: −log10 of the molar value.

target: Drp1 (Homo sapiens (Human), UniProt O00429); experiment: Drp1 Activity Screen: colorimetric (malachite green) GTPase assay; format: biochemical; settings: GTPase activity; 0.6 μM Drp1 preincubated with 0.1 mg/mL liposomes, 1 mM GTP, 20 min at 37° C.
Procedure: The GTPase activity of Drp1 was assayed using a colorimetric assay similar to as described previously by Leonard M. et al. “Robust colorimetric assays for dynamin's basal and stimulated GTPase activities.” Methods Enzymol. […] Briefly, for GTPase assays of purified Drp1 inhibitor samples, 0.6 μM Drp1 preincubated with 0.1 mg/mL liposomes (consisting of 80% soybean lipids/20% cardiolipin) and inhibitor was added to 1 mM GTP in a microtiter plate for 20 min at 37° C. in 4 mM MgCl2, 10 mM Hepes (pH 7.0), 100 mM KCl, 1 mM DTT. Reactions were stopped by diluting with 0.5 mM EDTA. Samples were then incubated with malachite green reagent (1 mM malachite green and 50 mM ammonium molybdate in 1 N HCl), and the absorbance at 650 nm was measured. The reaction rates, IC50 values, and max % inhibition were determined using Excel/GraphPad Prism software.

Sequence of Drp1 (O00429 whole entry): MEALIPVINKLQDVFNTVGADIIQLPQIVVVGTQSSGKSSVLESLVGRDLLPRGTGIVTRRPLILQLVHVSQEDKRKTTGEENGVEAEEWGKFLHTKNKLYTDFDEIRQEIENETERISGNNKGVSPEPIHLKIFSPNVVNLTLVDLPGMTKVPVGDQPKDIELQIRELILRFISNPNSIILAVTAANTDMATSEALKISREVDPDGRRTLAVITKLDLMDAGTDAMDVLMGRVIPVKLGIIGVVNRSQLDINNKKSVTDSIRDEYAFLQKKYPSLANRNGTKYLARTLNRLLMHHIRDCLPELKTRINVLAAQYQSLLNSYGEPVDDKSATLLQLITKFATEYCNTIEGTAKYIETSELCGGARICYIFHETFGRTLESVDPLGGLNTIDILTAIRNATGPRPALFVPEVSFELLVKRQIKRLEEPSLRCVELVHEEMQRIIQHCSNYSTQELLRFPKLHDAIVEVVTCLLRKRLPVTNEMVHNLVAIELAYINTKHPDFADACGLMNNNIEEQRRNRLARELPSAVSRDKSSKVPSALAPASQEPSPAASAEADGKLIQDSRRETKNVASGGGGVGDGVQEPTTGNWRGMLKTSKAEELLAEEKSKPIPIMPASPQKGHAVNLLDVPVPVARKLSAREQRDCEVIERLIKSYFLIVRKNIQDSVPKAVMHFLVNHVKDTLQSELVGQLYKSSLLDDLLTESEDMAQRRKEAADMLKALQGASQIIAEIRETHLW

Row | pIC50 | Structure (SMILES)
1 | < 4.00 | Cc1cc(C(=O)Nc2ccc(C(=O)O)cc2C)n(Cc2csc(N3CCCCC3)n2)c1 [Compound A-54, 3-Methyl-4-(4-methyl-1-((2-(piperidin-1-yl)thiazol-4-yl)methyl)-1H-pyrrole-2-carboxamido)benzoic acid]
2 | 5.80 | Cc1cc(C(=O)Nc2ccc3ccccc3c2)n(Cc2csc(N3CCCCC3)n2)c1 [Compound A-23, 4-methyl-N-(naphthalen-2-yl)-1-((2-(piperidin-1-yl)thiazol-4-yl)methyl)-1H-pyrrole-2-carboxamide]
3 | 5.77 | Cc1cc(C(=O)NC2CCCCC2)n(Cc2csc(N3CCCCC3)n2)c1 [Compound A-26, N-cyclohexyl-4-methyl-1-((2-(piperidin-1-yl)thiazol-4-yl)methyl)-1H-pyrrole-2-carboxamide]
4 | 4.66 | Cc1cc(C(=O)Nc2cc(F)c(O)c(F)c2)n(Cc2csc(N3CCCCC3)n2)c1 [Compound A-24, N-(3,5-difluoro-4-hydroxyphenyl)-4-methyl-1-((2-(piperidin-1-yl)thiazol-4-yl)methyl)-1H-pyrrole-2-carboxamide]
5 | 5.06 | Cc1cc(C(=O)Nc2ccccn2)n(Cc2csc(N3CCCCC3)n2)c1 [Compound A-30, 4-methyl-1-((2-(piperidin-1-yl)thiazol-4-yl)methyl)-N-(pyridin-2-yl)-1H-pyrrole-2-carboxamide]
6 | 5.68 | Cc1cc(C(=O)Nc2ccc(-c3nn[nH]n3)cc2)n(Cc2cccc(N3CCCCC3)n2)c1 [Compound A-67, N-(4-(1H-tetrazol-5-yl)phenyl)-4-methyl-1-((6-(piperidin-1-yl)pyridin-2-yl)methyl)-1H-pyrrole-2-carboxamide]
7 | 5.77 | Cc1cc(C(=O)Nc2ccc(C(=O)O)cc2)n(Cc2cccc(N3CCCCC3)n2)c1 [Compound A-16, 4-(4-methyl-1-((6-(piperidin-1-yl)pyridin-2-yl)methyl)-1H-pyrrole-2-carboxamido)benzoic Acid]
8 | 5.60 | Cc1cc(C(=O)Nc2ccc(C(=O)O)c(C)c2)n(Cc2csc(N3CCCCC3)n2)c1 [Compound A-61, 2-methyl-4-(4-methyl-1-((2-(piperidin-1-yl)thiazol-4-yl)methyl)-1H-pyrrole-2-carboxamido)benzoic Acid]
9 | 5.60 | Cc1cc(C(=O)Nc2ccc(S(N)(=O)=O)cc2)n(Cc2csc(N3CCCCC3)n2)c1 [Compound A-8, 4-methyl-1-((2-(piperidin-1-yl)thiazol-4-yl)methyl)-N-(4-sulfamoylphenyl)-1H-pyrrole-2-carboxamide]
10 | 5.42 | Cc1cc(C(=O)Nc2ccc(C(=O)O)cc2)n(Cc2csc(-c3ccccc3)n2)c1 [Compound A-17, 4-(4-methyl-1-((2-phenylthiazol-4-yl)methyl)-1H-pyrrole-2-carboxamido)benzoic Acid]
11 | 5.11 | Cc1cc(C(=O)Nc2ccc(C(=O)O)cc2F)n(Cc2csc(N3CCCCC3)n2)c1 [Compound A-66, 3-fluoro-4-(4-methyl-1-((2-(piperidin-1-yl)thiazol-4-yl)methyl)-1H-pyrrole-2-carboxamido)benzoic Acid]
12 | 5.92 | Cc1cc(C(=O)Nc2ccc(-c3cn[nH]c3)cc2)n(Cc2csc(N3CCCCC3)n2)c1 [Compound A-37, N-(4-(1H-pyrazol-4-yl)phenyl)-4-methyl-1-((2-(piperidin-1-yl)thiazol-4-yl)methyl)-1H-pyrrole-2-carboxamide]
13 | 5.55 | Cc1cc(C(=O)Nc2ccc(C(=O)O)c(F)c2)n(Cc2csc(N3CCCCC3)n2)c1 [Compound A-57, 2-fluoro-4-(4-methyl-1-((2-(piperidin-1-yl)thiazol-4-yl)methyl)-1H-pyrrole-2-carboxamido)benzoic Acid]
14 | < 4.00 | O=C(O)c1ccc(NC(=O)c2ccccc2Cc2csc(N3CCCCC3)n2)cc1 [Compound A-11, 4-(2-((2-(piperidin-1-yl)thiazol-4-yl)methyl)benzamido)benzoic Acid]
15 | 4.60 | Cc1cc(C(=O)Nc2ccc(C(=O)O)cc2)n(Cc2csc(N3CCOCC3)n2)c1 [Compound A-12, 4-(4-methyl-1-((2-morpholinothiazol-4-yl)methyl)-1H-pyrrole-2-carboxamido)benzoic Acid]
16 | < 4.00 | Cc1cc(C(=O)N(C)c2ccccc2)n(Cc2csc(N3CCCCC3)n2)c1 [Compound A-28, N,4-dimethyl-N-phenyl-1-((2-(piperidin-1-yl)thiazol-4-yl)methyl)-1H-pyrrole-2-carboxamide]

Row | Structure (SMILES) | pIC50
17 | Cc1cc(C(=O)Nc2ccc(-c3ccc(C(=O)O)cc3)cc2)n(Cc2csc(N3CCCCC3)n2)c1 [Compound A-71, 4′-(4-methyl-1-((2-(piperidin-1-yl)thiazol-4-yl)methyl)-1H-pyrrole-2-carboxamido)-[1,1′-biphenyl]-4-carboxylic Acid] | 6.14
18 | Cc1ccc(C(=O)Nc2ccccc2)n1Cc1csc(N2CCCCC2)n1 [Compound A-39, 5-methyl-N-phenyl-1-((2-(piperidin-1-yl)thiazol-4-yl)methyl)-1H-pyrrole-2-carboxamide] | 4.44

same assay, conditions: max % inhibition of Drp1 GTPase activity; 0.6 μM Drp1, 0.1 mg/mL liposomes, 1 mM GTP, 20 min at 37° C.

Row | Structure (SMILES) | max % inh
19 | Cc1cc(C(=O)Nc2ccc(-c3ccc(C(=O)O)cc3)cc2)n(Cc2csc(N3CCCCC3)n2)c1 [Compound A-71, 4′-(4-methyl-1-((2-(piperidin-1-yl)thiazol-4-yl)methyl)-1H-pyrrole-2-carboxamido)-[1,1′-biphenyl]-4-carboxylic Acid] | 83%
20 | Cc1ccc(C(=O)Nc2ccccc2)n1Cc1csc(N2CCCCC2)n1 [Compound A-39, 5-methyl-N-phenyl-1-((2-(piperidin-1-yl)thiazol-4-yl)methyl)-1H-pyrrole-2-carboxamide] | 26%
